From patent US20120115724A1, “METHOD OF CONTROLLING UNDESIRED VEGETATION” (SYNGENTA CROP PROTECTION LLC, priority 2009, published 2012) come the findings set out here.

Each structure is given as a SMILES string.

What all share (type): in vivo
Test [1] relates to VERPE Veronica persica. Kind of test: Post-emergence crop and weed test (Example 15). As to conditions: 360 h, after 15 days, read-out: Percentage damage VERPE. The method, then:
(§1) Seeds of crop and representative weed species were sown in standard soil in pots. After cultivation for 14 days under controlled conditions in a glasshouse (at 22/16° C., day/night; 16 hours light; 65% humidity), the plants were sprayed. The spray solution was prepared by dissolving the technical active ingredient in acetone containing 10.56 wt % Emulsogen EL, 42.22 wt % N-methylpyrrolidone and 2.22 wt % DPG-monoethyl ether to give a 5% stock solution. This was then diluted with water containing 0.2% (v/v) of the adjuvant X-77 to give the desired treatment concentration.
(§2) The test plants were then grown on under controlled conditions in a glasshouse (at 22/16° C., day/night; 16 hours light; 65% humidity) and watered twice daily. After 15 days the test was evaluated (100 =total damage to plant; 0 =no damage to plant).

For test [2], the system named is SIDSP Sida spinosa. Kind of test: Post-emergence crop and weed test (Example 15). As to conditions: 360 h, after 15 days, read-out: Percentage damage SIDSP. The method, then:
as §1, §2

Test [3] relates to KCHSC Kochia scoparia. Nature of the test: Post-emergence crop and weed test (Example 15). To be noted: Bassia scoparia, 360 h, after 15 days, read-out: Percentage damage KCHSC. The method, then:
as §1, §2

The test system of test [4] is CHEAL Chenopodium album. Nature of the test: Post-emergence crop and weed test (Example 15). As to conditions: 360 h, after 15 days, read-out: Percentage damage CHEAL. The method, then:
as §1, §2

In test [5] the test system is IPOHE Ipomoea hederacea. Nature of the test: Post-emergence crop and weed test (Example 15). As to conditions: 360 h, after 15 days, read-out: Percentage damage IPOHE. The method, then:
as §1, §2

In test [6] the test system is GLXMA Soybean. Kind of test: Post-emergence crop and weed test (Example 15). To be noted: Glycine max, 360 h, after 15 days, read-out: Percentage damage GLXMA. The method, then:
as §1, §2

The subject of test [7] is ABUTH Abutilon theophrasti. Kind of test: Post-emergence crop and weed test (Example 15). As to conditions: 360 h, after 15 days, read-out: Percentage damage ABUTH. The method, then: as §1, §2
In test [8] the test system is POLCO Polygonum convolvulus. Nature of the test: Post-emergence crop and weed test (Example 15). As to conditions: Fallopia convolvulus, 360 h, after 15 days, read-out: Percentage damage POLCO. The method, then: as §1, §2
For test [9], the system named is SINAR Sinapis arvensis. Nature of the test: Post-emergence crop and weed test (Example 15). As to conditions: Mutarda arvensis, 360 h, after 15 days, read-out: Percentage damage SINAR. The method, then:
as §1, §2

Test [10] relates to EPHHL Euphorbia heterophylla. Kind of test: Post-emergence crop and weed test (Example 15). To be noted: 360 h, after 15 days, read-out: Percentage damage EPHHL. The method, then: as §1, §2
The test system of test [11] is XANST Xanthium strumarium. Nature of the test: Post-emergence crop and weed test (Example 15). As to conditions: 360 h, after 15 days, read-out: Percentage damage XANST. The method, then: as §1, §2
Test [12] concerns AMARE Amaranthus retroflexus. Kind of test: Post-emergence crop and weed test (Example 15). As to conditions: 360 h, after 15 days, read-out: Percentage damage AMARE. The method, then:
as §1, §2

In test [13] the test system is Solanum nigrum (SOLNI). Kind of test: Post-emergence biological efficacy (Example 14). To be noted: post-emergence, 1,000 g/ha, after 13 days; for pest or weed control at 1000 g/ha: Solanum nigrum, 312 h, read-out: Percentage damage SOLNI. The method, then: (§3) Seeds of Alopecurus myosuroides (ALOMY), Setaria faberi (SETFA), Echinochloa crus-galli (ECHCG), Solanum nigrum (SOLNI), Amaranthus retroflexus (AMARE) and Ipomea hederaceae (IPOHE) were sown in standard soil in pots. After cultivation for 8 days under controlled conditions in a glasshouse (at 24/16° C., day/night; 14 hours light; 65% humidity), the plants were sprayed with an aqueous spray solution derived from the formulation of the technical active ingredient in acetone/water (50:50) solution containing 0.5% Tween 20 (polyoxyethylene sorbitan monolaurate, CAS RN 9005-64-5) to give a final dose of 250 or 1000 g/ha of test compound. The test plants were then grown on under controlled conditions in a glasshouse (at 24/16° C., day/night; 14 hours light; 65% humidity) and watered twice daily. After 13 days the test was evaluated (100=total damage to plant; 0=no damage to plant).

Test [14] deals with Echinochloa crus-galli (ECHCG). Kind of test: Post-emergence biological efficacy (Example 14). To be noted: post-emergence, 1,000 g/ha, after 13 days; for pest or weed control at 1000 g/ha: Echinochloa crus-galli, 312 h, read-out: Percentage damage ECHCG. The method, then:
as §3

In test [15] the test system is Amaranthus retroflexus (AMARE). Nature of the test: Post-emergence biological efficacy (Example 14). To be noted: post-emergence, 1,000 g/ha, after 13 days; for pest or weed control at 1000 g/ha: Amaranthus retroflexus, 312 h, read-out: Percentage damage AMARE. The method, then:
as §3

The subject of test [16] is Setaria faberi (SETFA). Nature of the test: Post-emergence biological efficacy (Example 14). As to conditions: post-emergence, 1,000 g/ha, after 13 days; for pest or weed control at 1000 g/ha: Setaria faberi, 312 h, read-out: Percentage damage SETFA. The method, then: as §3
For test [17], the system named is Ipomea hederaceae (IPOHE). Nature of the test: Post-emergence biological efficacy (Example 14). To be noted: post-emergence, 1,000 g/ha, after 13 days; for pest or weed control at 1000 g/ha: Ipomoea hederacea, 312 h, read-out: Percentage damage IPOHE. The method, then: as §3
For test [18], the system named is Alopecurus myosuroides (ALOMY). Nature of the test: Post-emergence biological efficacy (Example 14). As to conditions: post-emergence, 1,000 g/ha, after 13 days; for pest or weed control at 1000 g/ha: Alopecurus myosuroides, 312 h, read-out: Percentage damage ALOMY. The method, then:
as §3

In test [19] the test system is Solanum nigrum (SOLNI). Nature of the test: Pre-emergence biological efficacy (Example 13). To be noted: pre-emergence, 1,000 g/ha, after 13 days; for pest or weed control at 1000 g/ha: Solanum nigrum, 312 h, read-out: Percentage damage SOLNI. The method, then:
(§4) Seeds of Alopecurus myosuroides (ALOMY), Setaria faberi (SETFA), Echinochloa crus-galli (ECHCG), Solanum nigrum (SOLNI), Amaranthus retroflexus (AMARE) and Ipomea hederaceae (IPOHE) were sown in standard soil in pots. After cultivation for one day under controlled conditions in a glasshouse (at 24/16° C., day/night; 14 hours light; 65% humidity), the plants were sprayed with an aqueous spray solution derived from the formulation of the technical active ingredient in acetone/water (50:50) solution containing 0.5% Tween 20 (polyoxyethylene sorbitan monolaurate, CAS RN 9005-64-5) to give a final dose of 250 or 1000g/ha of test compound. The test plants were then grown under controlled conditions in the glasshouse (at 24/16° C., day/night; 14 hours light; 65% humidity) and watered twice daily. After 13 days the test was evaluated (100 =total damage to plant; 0 =no damage to plant).

The subject of test [20] is Echinochloa crus-galli (ECHCG). Nature of the test: Pre-emergence biological efficacy (Example 13). To be noted: pre-emergence, 1,000 g/ha, after 13 days; for pest or weed control at 1000 g/ha: Echinochloa crus-galli, 312 h, read-out: Percentage damage ECHCG. The method, then:
as §4

In test [21] the test system is Amaranthus retroflexus (AMARE). Kind of test: Pre-emergence biological efficacy (Example 13). As to conditions: pre-emergence, 1,000 g/ha, after 13 days; for pest or weed control at 1000 g/ha: Amaranthus retroflexus, 312 h, read-out: Percentage damage AMARE. The method, then: as §4
Test [22] relates to Setaria faberi (SETFA). Kind of test: Pre-emergence biological efficacy (Example 13). As to conditions: pre-emergence, 1,000 g/ha, after 13 days; for pest or weed control at 1000 g/ha: Setaria faberi, 312 h, read-out: Percentage damage SETFA. The method, then: as §4
Test [23] relates to Ipomea hederaceae (IPOHE). Kind of test: Pre-emergence biological efficacy (Example 13). As to conditions: pre-emergence, 1,000 g/ha, after 13 days; for pest or weed control at 1000 g/ha: Ipomoea hederacea, 312 h, read-out: Percentage damage IPOHE. The method, then: as §4
Test [24] has as its system Alopecurus myosuroides (ALOMY). Nature of the test: Pre-emergence biological efficacy (Example 13). To be noted: pre-emergence, 1,000 g/ha, after 13 days; for pest or weed control at 1000 g/ha: Alopecurus myosuroides, 312 h, read-out: Percentage damage ALOMY. The method, then: as §4

For the molecule `C=Cc1c(N)nc(-c2ccc(Cl)cc2F)nc1C(=O)OC` [Compound 10, 4-Amino-2-(4-chloro-2-fluorophenyl)-5-ethenyl-6-methoxycarbonyl-pyrimidine], the pest or weed control at 15 g/ha in [1] (15 g/ha) turned out to be 10%; in [2] (15 g/ha) it was 50%; in test [3] (15 g/ha) it was 30%; in test [4] (15 g/ha), 80%; in test [5] (15 g/ha), 70%; in test [7] (15 g/ha) it was 90%. For the same molecule, the pest or weed control at 15 g/ha in test [8] (15 g/ha) was 70%; in test [9] (15 g/ha) it was 80%; in test [10] (15 g/ha) it was 50%; in test [11] (15 g/ha) it was 70%; in test [12] (15 g/ha), 50%. Moreover, the plant injury at 15 g/ha in test [6] (15 g/ha) is 0%.

With `C=Cc1c(N)nc(-c2ccc(Cl)c(F)c2)nc1C(=O)OC` [Compound 9, 4-Amino-2-(4-chloro-3-fluorophenyl)-5-ethenyl-6-methoxycarbonyl-pyrimidine], the pest or weed control at 125 g/ha was found to be 80% in test [1] (125 g/ha); 80% in test [2] (125 g/ha); 90% in [3] (125 g/ha); 90% in test [4] (125 g/ha); 80% in [5] (125 g/ha); 80% in [7] (125 g/ha). Further, the pest or weed control at 125 g/ha came to 70% in [8] (125 g/ha); 80% in test [9] (125 g/ha); 80% in test [10] (125 g/ha); 100% in [11] (125 g/ha); 100% in [12] (125 g/ha). Further, in [6] (125 g/ha), the plant injury at 125 g/ha is 0%.

With `C=Cc1c(NCc2ccccc2[N+](=O)[O-])nc(-c2ccc(Cl)c(N(C)C)c2F)nc1C(=O)OC` [Compound 16, 2-(4-Chloro-3-dimethylamino-2-fluorophenyl)-5-ethenyl-6-methoxycarbonyl-4-(2-nitrophenylmethyl-amino)-pyrimidine], the pest or weed control at 1000 g/ha in test [13] was determined as 80%; in test [14], 70%; in [15], 100%; in [16], 90%; in [17], 60%; in [18] it was 70%. Also, the pest or weed control at 1000 g/ha in test [19] came out at 30%; in [20] it was 70%; in test [21], 50%; in [22] it was 70%; in test [23], 0%; in [24] it was 60%.

On to `C=Cc1c(NCc2ccccc2F)nc(-c2ccc(Cl)c(OC)c2F)nc1C(=O)OC` [Compound 14, 2-(4-Chloro-2-fluoro-3-methoxyphenyl)-5-ethenyl-4-(2-fluorophenylmethylamino)-6-methoxycarbonyl-pyrimi-dine], for which the pest or weed control at 1000 g/ha was determined as 90% in test [13]; 0% in [14]; 100% in test [15]; 0% in [16]; 60% in test [17]; 0% in [18]. The pest or weed control at 1000 g/ha was determined as 60% in [19]; 0% in [20]; 20% in test [21]; 0% in test [22]; 50% in [23]; 0% in test [24].

In the case of `C=Cc1c(N)nc(-c2ccc(Cl)c(N(C)C)c2F)nc1C(=O)OCCOCCCC` [Compound 46, 4-Amino-6-(2- ^nbutoxy-ethoxy)carbonyl-2-(4-chloro-3-dimethylamino-2-fluorophenyl)-5-ethenyl-pyrimidine], the “Percentage damage SOLNI” value in test [13] worked out at 90%; in test [19] it was 100%. Further, the “Percentage damage ECHCG” value in test [14] amounted to 90%; in test [20], 100%. In addition, the “Percentage damage AMARE” value in test [15] and in test [21] was 100% in each case. Moreover, the “Percentage damage SETFA” value in test [16] and in test [22] was 90% in each case. The entries for the “Percentage damage IPOHE” value in test [17] and in [23] were 80% and 50%, respectively. Besides, the “Percentage damage ALOMY” value in [18] and in [24] was 80% in each case.
